We go through five molecules from US7842678B2, “Compositions comprising oligosaccharides” (priority 2003, dated 2010).

The subject of test [1] is VTEC adhesion to HT29 cells. Briefly: Adhesion assay of VTEC to HT29 cell monolayers (Example 1). The class given is cell-based, E. coli. On the procedure:
(§1) HT29 cells were grown to 95-100% confluence in 12-well tissue culture plates. Bacterial cultures were grown in tissue culture medium, anaerobically at 37° C. These incubation conditions promoted expression of adhesions by the bacteria. The bacteria (in buffer, with or without the test oligosaccharide) were added to the cell monolayers and incubated for 2 h at 37° C. aerobically under 5% CO2. After incubation, the cell layers were washed three times in buffer and the adherent bacteria quantified. Assays were performed in triplicate
(§2) The tested oligosaccharides were methyl-α-mannopyrannoside and CGMP.
(§3) After the adhesion and washing stages, the cells were suspended and vigorously mixed to break up clumps. The resulting suspension was then plated onto non-selective agar media appropriate for the test organism.
(§4) The Initial inoculum was 7.3 log cfu ml^−1 (VTEC) and 7.0 log cfu ml^−1 (EPEC).

The subject of test [2] is VTEC NCTC 12900 adhesion to HT29 cells. Briefly: Adhesion assay of VTEC to HT29 cells, cultures subcultured on three successive days (Example 2). Format: cell-based, E. coli. To be noted: for Inhibition of adhesion of VTEC to HT29 cells (FIG. 1): 2.5 mg ml, plate counting, relative to oligosaccharide-free control; for Inhibition of adhesion of VTEC to HT29 cells (FIG. 2): VTEC subcultured on three successive days. On the procedure:
VTEC NCTC 12900 was inoculated from frozen stocks into Dulbecco's modified eagle medium (DMEM) with added non-essential amino acids (1% v/v) and foetal bovine serum (5% v/v). The culture was incubated anaerobically at 37° C. for 18 h. A 20 μl aliquot was transferred into 2 ml of fresh DMEM, and incubated under the same conditions for 24 h. This was repeated twice more, so that the organism was subcultured on three successive days. An adhesion assay was then carried out as described previously, using 2.5 mg ml methyl-α-D-mannopyrannoside and D-mannose, and the adhered bacteria were enumerated by using plate counting.
Alpha 1,2 mannobiose and alpha 1,6 mannobiose were assayed for anti-adhesive activity using the method described hereinabove, with the modification that the VTEC cultures were subcultured on three successive days as described above.
Further oligosaccharides (pectic oligosaccharides, isomalto-oligosaccharides, GOS, partially hydrolyzed guar gum, xylo oligosaccharides and lactulose) have been tested for anti-adhesive activity against E. coli, both VTEC and EPEC pathovars. Methods were as described previously but with three subcultures included in the culture preparation stage, as described above. Compounds tested included GOS and pectic oligosaccharides that had been further purified by ultrafiltration to remove nitrates.

Test [3] relates to EPEC adhesion to HT29 cells. Briefly: Adhesion assay of EPEC to HT29 cell monolayers (Example 1). Format: cell-based, E. coli. To be noted: oligosaccharide concentration 0.25%; initial inoculum 7.0 log cfu ml^−1; buffer only 5.3; 2 h at 37° C. How it is done: as §1, §2, §3, §4
Test [4] relates to E. coli EPEC (O119:H4) adhesion to HT29 cells. Kind of test: Adhesion assay of carbohydrates against E. coli EPEC on HT29 monolayers (Example 3). Format: cell-based. To be noted: carbohydrate solution 5 mg/ml in PBS mixed 1:1 with bacterial suspension; 2 hours at 37° C. aerobically; relative to carbohydrate-free control. On the procedure: The saccharides were tested against one strain of E. coli VTEC (0157:1H7 strain NCTC 12900) and one strain of E. coli EPEC (O119:H4).
E. coli broth cultures for adhesion assays were grown in DMEM supplemented with 5% v/v FBS and 1% non-essential amino acid solution (SDMEM). For each strain, a broth was inoculated from a slope culture and incubated anaerobically at 37° C. for 18-24 h. The overnight culture was then inoculated (1% v/v) into fresh SDMEM and incubated for a further 18-24 h under the same conditions. This was repeated once more. On the day of the assay, a 10% v/v inoculum was placed into pre-warmed SDMEM and incubated for 4 h anaerobically at 37° C.
A culture of the test strain was prepared as described above, then diluted 1:500 in PBS. The viable count of the diluted suspension was determined by spread plating onto PCA, with decimal dilutions carried out in MRD as necessary. The carbohydrates to be tested were dissolved in PBS (5 mg/ml) and sterilised by passing through a 0.2 μm syringe filter. […] A 1 ml aliquot of PBS was then pipetted into each well, and pipette mixed until the monolayer was completely dislodged and clumps broken up (as determined visually). […]
Data processing: Viable counts were calculated for all wells and the inoculum, and expressed as colony forming units per ml (cfu/ml). For each test, the mean and standard error of the triplicate wells were calculated. […]

With `CO[C@H]1O[C@H](CO)[C@@H](O)[C@H](O)[C@@H]1O` [methyl-α-mannopyranoside, Methyl-α-D-mannopyranoside], in test [1] (oligosaccharide 0.25%, pathovar not given), the “Reduction in adhesion (in words)” value was “reduction in adhesion”. The “Viable count of adhered VTEC” value in test [1] (oligosaccharide concentration 0.25%, initial inoculum 7.3 log cfu ml^−1, buffer only 6.3, 2 h at 37° C.) came to 4.8 log cfu ml^−1. In addition, in test [2], the “Inhibition of adhesion of VTEC to HT29 cells (FIG. 1)” value is “good inhibition of adhesion” and the “Inhibition of adhesion of VTEC to HT29 cells (FIG. 2)” value (from here on “Inhibition of adhesion … (FIG. 2)”) is “Inhibition of adhesion”. The “Viable count of adhered EPEC” value in test [3] came out at 5.1 log cfu ml^−1.

Regarding `OC[C@H]1O[C@H](OC[C@H]2O[C@H](O)[C@@H](O)[C@@H](O)[C@@H]2O)[C@@H](O)[C@@H](O)[C@@H]1O` [alpha 1,6 mannobiose], the “Inhibition of adhesion … (FIG. 2)” value in test [2] is given as “Inhibition of adhesion was detected”.

As to `OC[C@H]1O[C@H](O[C@@H]2C(O)O[C@H](CO)[C@@H](O)[C@@H]2O)[C@@H](O)[C@@H](O)[C@@H]1O` (stereo partly drawn) [Alpha 1,2 mannobiose], the “Inhibition of adhesion … (FIG. 2)” value in test [2] is given as “Inhibition of adhesion was detected”.

For β-1,3-glucan [curdlan], in test [4], the “Anti-adhesive activity against enteropathogenic E. coli EPEC (FIG. 5)” value is “positive”.

Turning to `O=C[C@@H](O)[C@@H](O)[C@H](O)[C@H](O)CO` [D-mannose], the “Inhibition of adhesion of VTEC to HT29 cells (FIG. 1)” value in test [2] is recorded as “good inhibition of adhesion”.
